# Source: paper PMC7924852, “The Emericellipsins A–E from an Alkalophilic Fungus Emericellopsis alkalina Show Potent Activity against Multidrug-Resistant Pathogenic Fungi” (Journal of Fungi, 2021)
# Non-standard residues stand in square brackets, D forms with d. Residues, ends and D or L forms follow the SMILES beside them. Orn = NCCC[C@H](N)C(=O)O
# Key:
# Cr. laurentii 325m = assay: Sensititre YeastOne antifungal susceptibility test; assay type: cell-based; conditions: Papiliotrema laurentii, 325M
# A. fumigatus 390 m [1] = assay: Broth two-fold microdilution MIC (CLSI); assay type: cell-based, Aspergillus fumigatus; conditions: 48 h
# C. krusei 1447 [2] = assay: Broth microdilution MIC and MFC (CLSI); assay type: cell-based
# A. terreus 3 K [3] = assay: Disc-diffusion antifungal assay; assay type: cell-based
# A. terreus 497 [4] = assay: Disc-diffusion antifungal assay; assay type: cell-based; conditions: A. terreus 497, pathogenic clinical isolate
# A. terreus 497 [5] = assay: Broth two-fold microdilution MIC (CLSI); assay type: cell-based
# C. parapsilosis 571 [6] = assay: Broth microdilution MIC and MFC (CLSI); assay type: cell-based
# Candida albicans 1402 [7] = assay: Sensititre YeastOne antifungal susceptibility test; assay type: cell-based; conditions: Candida albicans, 1402
# [8] = tested on: reference and clinical strains of Aspergillus; assay: Disc-diffusion antifungal assay, Aspergillus strains; assay type: cell-based
# [9] = tested on: Cryptococcus neoformans 297; assay: Broth microdilution MIC and MFC (CLSI); assay type: cell-based
# C. tropicalis 156 [10] = assay: Sensititre YeastOne antifungal susceptibility test; assay type: cell-based; conditions: Candida tropicalis, 156
# A. fumigatus 390m = assay: Sensititre YeastOne antifungal susceptibility test; assay type: cell-based; conditions: Aspergillus fumigatus, 390M
# A. niger ATCC 16404 = assay: Broth two-fold microdilution MIC (CLSI); assay type: cell-based, Aspergillus niger
# A. fumigatus VKM F-37 [11] = assay: Disc-diffusion antifungal assay; assay type: cell-based, Aspergillus fumigatus
# Aspergillus niger 1133m = assay: Sensititre YeastOne antifungal susceptibility test; assay type: cell-based; conditions: Aspergillus niger, 1133M
# A. niger 1133 m [12] = assay: Broth two-fold microdilution MIC (CLSI); assay type: cell-based, Aspergillus niger; conditions: 48 h
# C. parapsilosis 571 [13] = assay: Sensititre YeastOne antifungal susceptibility test; assay type: cell-based; conditions: Lodderomyces parapsilosis, 571
# [14] = tested on: clinical isolates of Candida; assay: Disc-diffusion antifungal assay, clinical yeast isolates; assay type: cell-based; conditions: range over clinical isolates of Candida (Figure S2)
# C. krusei 1447 [15] = assay: Sensititre YeastOne antifungal susceptibility test; assay type: cell-based; conditions: Pichia kudriavzevii, 1447
# A. fumigatus VKM F-37 [16] = assay: Broth two-fold microdilution MIC (CLSI); assay type: cell-based, Aspergillus fumigatus
# [17] = tested on: Cryptococcus neoformans 297; assay: Sensititre YeastOne antifungal susceptibility test; assay type: cell-based; conditions: Cryptococcus neoformans, 297
# [18] = tested on: Aspergillus niger ATCC 16404; assay: Disc-diffusion antifungal assay; assay type: cell-based
# C. laurentii 325m = assay: Broth microdilution MIC and MFC (CLSI); assay type: cell-based, Cr. laurentii; conditions: Papiliotrema laurentii
# A. terreus 497 [19] = assay: Sensititre YeastOne antifungal susceptibility test; assay type: cell-based; conditions: Sensititre YeastOne; A. terreus 497
# A. niger 1133 m [20] = assay: Disc-diffusion antifungal assay; assay type: cell-based, Aspergillus niger; conditions: pathogenic clinical isolate
# C. tropicalis 156 [21] = assay: Broth microdilution MIC and MFC (CLSI); assay type: cell-based
# A. fumigatus 390 m [22] = assay: Disc-diffusion antifungal assay; assay type: cell-based, Aspergillus fumigatus; conditions: pathogenic clinical isolate
# A. terreus 3 K [23] = assay: Broth two-fold microdilution MIC (CLSI); assay type: cell-based; conditions: 48 h
# Candida albicans 1402 [24] = assay: Broth microdilution MIC and MFC (CLSI); assay type: cell-based
# C. glabrata 1402 [25] = assay: Broth microdilution MIC and MFC (CLSI); assay type: cell-based
# C. glabrata 1402 [26] = assay: Sensititre YeastOne antifungal susceptibility test; assay type: cell-based; conditions: Nakaseomyces glabratus, 1402
# human erythrocytes = assay: Hemolytic activity; assay type: cell-based; conditions: 20 μM, 1 h, 37 °C, relative to H2O control = 100%, OD 540 nm or 570 nm, triplicate, mean
# Procedure: Erythrocytes were isolated from the peripheral blood of healthy donors after incubation at 4 °C for 2–3 h. All the donors are males, 35–38 years old. All of them have approved to collect blood samples, and the authors have permissions filled. All the blood samples have been destroyed after the experiments finished. The red blood cell suspension (100 μL) was pelleted, washed twice with saline, then the pellet was resuspended in 500 μL saline or distilled water (positive control of hemolysis). The compounds were added (final concentration of 20 μM). The samples were incubated for 1 h at 37 °C and centrifuged at 2000 rpm for 1.5 min. The OD of supernatants was measured on a Multiscan spectrophotometer FC (Thermo Scientific, Waltham, MA, USA) at a wavelength of 540 nm. The percent hemolysis was calculated relative to the positive control, taken as 100%.
# Erythrocytes were isolated from the human blood: On the day of the study, blood was taken from the donor’s cubital vein into a test tube with an anticoagulant. The blood was incubated at 4 °C for 2‒3 h. A suspension of erythrocytes (100 μL) was diluted with a physiological buffer (pH 7.2) to a total volume of 500 μL. Solutions of the test substances with an initial concentration of […] (DMSO) were diluted with a PBS buffer (1:10). The resulting solutions were introduced into Eppendorf tubes in the amounts required to create the studied concentration (5, 10, or 20 μM). A mixture of PBS with erythrocytes was added to a total volume of 200 μL. The control (C) was a mixture of erythrocytes with H2O (100% of hemolysis). The intact control solution (I) was a mixture of erythrocytes with the PBS and solvent (DMSO). The antibiotic gramicidin S (Gram S) was used as a control sample with active hemolysis. The mixture was incubated for 1 h at 37 °C. The measurement of the optical density of the supernatants was carried out on a BioTek ELx800 automatic microplate photometer (USA) at 570 nm. The optical density of the liquid above the sediment in the control sample with H2O was taken as 100%.
# [27] = tested on: isolates of Aspergillus spp.; assay: Broth microdilution MIC, ranges over mould isolates; assay type: cell-based; conditions: range over opportunistic and clinical isolates of Aspergillus spp. (Table 4)
compound,measurement,setting,value
"C[C@@H]1[C@H](O)[C@@H](C)/C=C/C=C/C=C/C=C/C=C/C=C/C=C/[C@H](O[C@@H]2O[C@H](C)[C@@H](O)[C@H](N)[C@@H]2O)C[C@@H]2O[C@](O)(C[C@@H](O)C[C@@H](O)[C@H](O)CC[C@@H](O)C[C@@H](O)CC(=O)O[C@H]1C)C[C@H](O)[C@H]2C(=O)O [AmpB, Amphotericin B]",MIC,Cr. laurentii 325m,0.5 µg/mL
same,MIC,"A. fumigatus 390 m [1]; Aspergillus fumigatus, 390M, pH 7, read-out: Minimal Inhibitory Concentration (MIC)",1 µg/mL
same,MIC,"C. krusei 1447 [2]; Pichia kudriavzevii, 1447, 24 h, pH 7",2 µg/mL
same,MFC,"C. krusei 1447 [2]; Pichia kudriavzevii, C. krusei 1447, lowest concentration causing 95% death, read-out: MFC",4 µg/mL
same,zone of inhibition at 40 µg/disc,A. terreus 3 K [3]; Aspergillus terreus,0 mm
same,zone of inhibition at 40 µg/disc,A. terreus 497 [4]; Aspergillus terreus,0 mm
same,MIC,"A. terreus 497 [5]; Aspergillus terreus, 497, 48 h, pH 7, read-out: Minimal Inhibitory Concentration (MIC)",> 64 µg/mL
same,MIC,"C. parapsilosis 571 [6]; Lodderomyces parapsilosis, 571, 24 h, pH 7",1 µg/mL
same,MFC,"C. parapsilosis 571 [6]; Lodderomyces parapsilosis, C. parapsilosis 571, lowest concentration causing 95% death, read-out: MFC",1 µg/mL
same,MIC,Candida albicans 1402 [7],0.5 µg/mL
same,inhibition zones,[8]; range over clinical isolates of Aspergillus (Figure S2),15–17 mm
same,MFC,"[9]; Cryptococcus neoformans 297, lowest concentration causing 95% death, read-out: MFC",1 µg/mL
same,MIC,"[9]; Cryptococcus neoformans, 297, 24 h, pH 7",0.5 µg/mL
same,MIC,C. tropicalis 156 [10],0.5 µg/mL
same,MIC,A. fumigatus 390m,1 µg/mL
same,MIC,"A. niger ATCC 16404; Aspergillus niger, ATCC16404, 48 h, pH 7, read-out: Minimal Inhibitory Concentration (MIC)",1 µg/mL
same,zone of inhibition at 40 µg/disc,"A. fumigatus VKM F-37 [11]; Aspergillus fumigatus, VKMF37",12 ± 0.23 mm
same,MIC,Aspergillus niger 1133m,1 µg/mL
same,MIC,"A. niger 1133 m [12]; Aspergillus niger, 1133M, pH 7, read-out: Minimal Inhibitory Concentration (MIC)",1 µg/mL
same,MIC,C. parapsilosis 571 [13],1 µg/mL
same,inhibition zones,[14],10–12 mm
same,MIC,C. krusei 1447 [15],2 µg/mL
same,MIC,"A. fumigatus VKM F-37 [16]; Aspergillus fumigatus, VKMF37, 48 h, pH 7, read-out: Minimal Inhibitory Concentration (MIC)",1 µg/mL
same,MIC,[17],1 µg/mL
same,zone of inhibition at 40 µg/disc,"[18]; Aspergillus niger, ATCC16404, A. niger ATCC 16404",0 mm
same,MIC,"C. laurentii 325m; 325M, 24 h, pH 7",0.25 µg/mL
same,MFC,"C. laurentii 325m; C. laurentii 325m, lowest concentration causing 95% death, read-out: MFC",0.5 µg/mL
same,MIC (class symbol),A. terreus 497 [19],R
same,zone of inhibition at 40 µg/disc,A. niger 1133 m [20]; Aspergillus niger,10 ± 0.14 mm
same,MIC,"C. tropicalis 156 [21]; Candida tropicalis, 156, 24 h, pH 7",0.5 µg/mL
same,MFC,"C. tropicalis 156 [21]; Candida tropicalis, C. tropicalis 156, lowest concentration causing 95% death, read-out: MFC",1 µg/mL
same,zone of inhibition at 40 µg/disc,A. fumigatus 390 m [22]; Aspergillus fumigatus,15 ± 0.51 mm
same,MIC,"A. terreus 3 K [23]; Aspergillus terreus, 3K, pH 7, read-out: Minimal Inhibitory Concentration (MIC)",> 64 µg/mL
same,MFC,"Candida albicans 1402 [24]; Candida albicans 1402, lowest concentration causing 95% death, plated on PDA agar, read-out: MFC",0.5 µg/mL
same,MIC,"Candida albicans 1402 [24]; Candida albicans 1402 clinical isolate, RPMI 1640 pH 7.0, 35 °C, 24 h, read-out: MIC",0.5 µg/mL
same,MIC,"C. glabrata 1402 [25]; Nakaseomyces glabratus, 1402, 24 h, pH 7",1 µg/mL
same,MFC,"C. glabrata 1402 [25]; Nakaseomyces glabratus, C. glabrata 1402, lowest concentration causing 95% death, read-out: MFC",1 µg/mL
same,MIC,C. glabrata 1402 [26],1 µg/mL
CC(C)C[C@@H]1NC(=O)[C@H](CCCN)NC(=O)[C@H](C(C)C)NC(=O)[C@@H]2CCCN2C(=O)[C@@H](Cc2ccccc2)NC(=O)[C@H](CC(C)C)NC(=O)[C@H](CCCN)NC(=O)[C@H](C(C)C)NC(=O)[C@@H]2CCCN2C(=O)[C@@H](Cc2ccccc2)NC1=O [gramicidin S] (cyclo(L[dF]PV[Orn]L[dF]PV[Orn])),hemolysis,human erythrocytes,100%
"Methyldecanoyl-MePro-AHMOD-Ala-Aib-Ile-Aib-βAla-Alaol-Glyol [EmiB, emericellipsin B, homologue of emericellipsin A, nonribosomal peptaibol]",Minimal Inhibitory Concentration (MIC),"A. fumigatus 390 m [1]; A. fumigatus 390 m clinical isolate, RPMI 1640 pH 7.0, 35 °C",8 µg/mL
same,Zone of Inhibition,A. terreus 3 K [3]; 40 µg/disc,0 mm
same,Zone of Inhibition,A. terreus 497 [4]; 40 µg/disc,0 mm
same,Minimal Inhibitory Concentration (MIC),"A. terreus 497 [5]; A. terreus 497 clinical isolate, RPMI 1640 pH 7.0, 35 °C, 48 h",4 µg/mL
same,antifungal activity against Aspergillus strains (in words),"[8]; disc-diffusion, reference and clinical strains of Aspergillus",low activity only against A. niger strains
same,Minimal Inhibitory Concentration (MIC),"A. niger ATCC 16404; A. niger ATCC 16404, RPMI 1640 pH 7.0, 35 °C, 48 h, no visible growth",8 µg/mL
same,MIC range,[27],4 to 8 µg/mL
same,Zone of Inhibition,A. fumigatus VKM F-37 [11]; 40 µg/disc,0 mm
same,Minimal Inhibitory Concentration (MIC),"A. niger 1133 m [12]; A. niger 1133 m clinical isolate, RPMI 1640 pH 7.0, 35 °C",8 µg/mL
same,Minimal Inhibitory Concentration (MIC),"A. fumigatus VKM F-37 [16]; A. fumigatus VKM F-37, RPMI 1640 pH 7.0, 35 °C, 48 h",8 µg/mL
same,Zone of Inhibition,"[18]; 40 µg/disc, A. niger ATCC 16404",10 ± 0.13 mm
same,Zone of Inhibition,A. niger 1133 m [20]; 40 µg/disc,11 ± 0.170 mm
same,Zone of Inhibition,A. fumigatus 390 m [22]; 40 µg/disc,0 mm
same,Minimal Inhibitory Concentration (MIC),"A. terreus 3 K [23]; A. terreus 3 K, RPMI 1640 pH 7.0, 35 °C",4 µg/mL
